{"source": "paper PMC11589570", "about": "“Critical assessment of LC3/GABARAP ligands used for degrader development and ligandability of LC3/GABARAP binding pockets” (Nature Communications, 2024)", "key": {"U2OS cells": {"test_system": "U2OS cells", "assay": "Cell growth assay (IncuCyte confluence over 72 h)", "assay_type": "cell-based", "parameters": "key to U2OS cell growth: % of well area covered by cells (confluence)", "details": "for U2OS cell growth: listed as 8F20", "how_it_was_run": "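U2OS cells were grown in DMEM with 10% FBS for 24 h before treatment. Confluence was then tracked by IncuCyte phase imaging over 72 h and expressed as % of well area covered by cells. Each point is the average of three wells.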"}, "LC3B": {"target": "LC3B (Homo sapiens, UniProt Q9GZQ8)", "assay": "FP assay with 10O5- and 8F20-based dye-linked tracers 16 and 17", "details": "LC3B; compound 3 for tracer 17, compound 4 for tracer 16", "from_the_text": "The only experimental difference in our FP assay setup was the addition of 0.05% Tween-20, which is routinely used[27] to suppress unspecific binding of compounds to proteins.\nFluorescence polarization assay utilizing tracers 16 and 17 for interaction studies with LC3A\n(upper panels) and LC3B (lower panels). The left panels depict protein titration measurements\ndetergent in the buffer to suppress unspecific binding. Middle panels depict displacement\nData were collected in technical\ntriplicates with error bars expressing the SD (n=3)."}, "LC3A [1]": {"target": "T1, LC3A (Homo sapiens, UniProt Q9H492)", "assay": "FP assay with Cy5-labelled p62 LIR tracer (protein titration and tracer displacement)", "assay_type": "binding", "details": "LC3A"}, "LC3A [2]": {"target": "T1, LC3A", "assay": "Spectral shift assay (Dianthus), cysteine-labelled protein", "assay_type": "binding", "details": "Repeat 1 and Repeat 2, listed as 8F20 (3)", "description": "Affinity determination using spectral shift mode on Dianthus: To determine dissociation constants, the Dianthus instrument (NanoTemper Technologies GmbH, Germany) was used to monitor molecular interactions. […] Protein was labelled with RED-maleimide 2nd Generation (cat# MO-L014; NanoTemper Technologies GmbH). Labeling was carried out following the manufacturer protocol, using a 3:1 ratio dye:protein. […] Protein was purified in 30 mM HEPES, 100 mM NaCl, 0.05% Tween, pH 7.5. […] Measurements were performed in spectral shift mode with an LED excitation power of 100%. Data were analyzed using the DI.Screening Analysis Software (v.2.0.4) (NanoTemper Technologies GmbH, Germany) and quality criteria values including Δ Ratio, Signal-to-Noise-Ratio, Fit Saturation and KD values were determined."}}, "note": "Several values for one entry are separate records, joined by “and”; a condition that tells them apart may be missing. Identical values can stand only once. Entries after “also recorded” stand apart in the source; their conditions may differ.", "data": [{"smiles": "Cc1ccc(C(=O)N(CCCN)[C@@H](c2nc3cc(Cl)ccc3c(=O)n2Cc2ccccc2)C(C)C)cc1", "note": "[compound 3, (R)-N-(3-aminopropyl)-N-(1-(3-benzyl-7-chloro-4-oxo-3,4-dihydroquinazolin-2-yl)−2-methylpropyl)−4-methylbenzamide]", "values": [{"measurement": "U2OS cell growth", "setting": "U2OS cells; 3 uM, time 36 h", "value": "25.7351 and 27.3161 and 28.6407"}, {"measurement": "U2OS cell growth", "setting": "U2OS cells; 3 uM, time 38 h", "value": "25.9027 and 26.3122 and 27.7775"}, {"measurement": "U2OS cell growth", "setting": "U2OS cells; 3 uM, time 40 h", "value": "26.2298 and 26.2214 and 29.7472"}, {"measurement": "U2OS cell growth", "setting": "U2OS cells; 3 uM, time 42 h", "value": "25.5977 and 26.3382 and 29.6536"}, {"measurement": "U2OS cell growth", "setting": "U2OS cells; 3 uM, time 44 h", "value": "26.2297 and 25.3695 and 28.5871"}, {"measurement": "U2OS cell growth", "setting": "U2OS cells; 3 uM, time 46 h", "value": "24.6522 and 24.6058 and 27.1829"}, {"measurement": "U2OS cell growth", "setting": "U2OS cells; 5 uM, time 34 h", "value": "28.2897 and 22.3175 and 29.2635"}, {"measurement": "U2OS cell growth", "setting": "U2OS cells; 5 uM, time 36 h", "value": "23.4225 and 23.0973 and 22.2621"}, {"measurement": "U2OS cell growth", "setting": "U2OS cells; 5 uM, time 38 h", "value": "33.3374 and 20.2415 and 36.6497"}, {"measurement": "U2OS cell growth", "setting": "U2OS cells; 5 uM, time 40 h", "value": "36.8034 and 23.7173 and 40.6411"}, {"measurement": "U2OS cell growth", "setting": "U2OS cells; 5 uM, time 42 h", "value": "29.192 and 24.8481 and 31.1144"}, {"measurement": "U2OS cell growth", "setting": "U2OS cells; 5 uM, time 44 h", "value": "25.7303 and 24.4958 and 26.8332"}, {"measurement": "U2OS cell growth", "setting": "U2OS cells; 5 uM, time 46 h", "value": "31.8475 and 23.3649 and 37.1335"}, {"measurement": "effect on cell growth (confluence)", "setting": "U2OS cells; U2OS, 72 h", "value": "significant growth inhibition in all tested concentrations; also recorded: strongly suppressed cellular growth"}, {"measurement": "displacement of dye-linked tracer by parent compound", "setting": "LC3B", "value": "no displacement"}, {"measurement": "normalized FP signal, p62 LIR tracer displacement", "setting": "LC3A [1]; log10 concentration [M] -3.82391, listed as 8F20", "value": "97.3684 and 104.737"}, {"measurement": "normalized FP signal, p62 LIR tracer displacement", "setting": "LC3A [1]; log10 concentration [M] -4.1549, listed as 8F20", "value": "102.105 and 103.947"}, {"measurement": "normalized FP signal, p62 LIR tracer displacement", "setting": "LC3A [1]; log10 concentration [M] -4.60206, listed as 8F20", "value": "101.053 and 106.053"}, {"measurement": "normalized FP signal, p62 LIR tracer displacement", "setting": "LC3A [1]; log10 concentration [M] -5, listed as 8F20", "value": "99.7368 and 100.789"}, {"measurement": "normalized FP signal, p62 LIR tracer displacement", "setting": "LC3A [1]; log10 concentration [M] -5.30103, listed as 8F20", "value": "102.105 and 98.4211"}, {"measurement": "normalized FP signal, p62 LIR tracer displacement", "setting": "LC3A [1]; log10 concentration [M] -5.69897, listed as 8F20", "value": "97.6316 and 96.0526"}, {"measurement": "normalized FP signal, p62 LIR tracer displacement", "setting": "LC3A [1]; log10 concentration [M] -6.22185, listed as 8F20", "value": "102.632 and 94.2105"}, {"measurement": "normalized FP signal, p62 LIR tracer displacement", "setting": "LC3A [1]; log10 concentration [M] -6.69897", "value": 101.053}, {"measurement": "normalized FP signal, p62 LIR tracer displacement", "setting": "LC3A [1]; log10 concentration [M] -6.69897, listed as 8F20", "value": 99.7368}, {"measurement": "normalized FP signal, p62 LIR tracer displacement", "setting": "LC3A [1]; log10 concentration [M] -7.30103, listed as 8F20", "value": "103.947 and 101.316"}, {"measurement": "normalized FP signal, p62 LIR tracer displacement", "setting": "LC3A [1]; log10 concentration [M] -7.79588", "value": 98.4211}, {"measurement": "normalized FP signal, p62 LIR tracer displacement", "setting": "LC3A [1]; log10 concentration [M] -7.79588, listed as 8F20", "value": 93.9474}, {"measurement": "normalized FP signal, p62 LIR tracer displacement", "setting": "LC3A [1]; log10 concentration [M] -8.08092", "value": 102.105}, {"measurement": "normalized FP signal, p62 LIR tracer displacement", "setting": "LC3A [1]; log10 concentration [M] -8.08092, listed as 8F20", "value": 93.9474}, {"measurement": "Initial Fluorescence", "setting": "LC3A [2]; compound 15.2588 nM titrated against LC3A", "value": "10115.139 and 10590.376"}, {"measurement": "Initial Fluorescence", "setting": "LC3A [2]; compound 30.5176 nM titrated against LC3A", "value": "10801.294 and 10751.715"}, {"measurement": "Initial Fluorescence", "setting": "LC3A [2]; compound 61.0352 nM titrated against LC3A", "value": "10969.053 and 11514.474"}, {"measurement": "Initial Fluorescence", "setting": "LC3A [2]; compound 122.07 nM titrated against LC3A", "value": "10805.714 and 11350.170"}, {"measurement": "Initial Fluorescence", "setting": "LC3A [2]; compound 244.141 nM titrated against LC3A", "value": "12437.260 and 12829.142"}, {"measurement": "Initial Fluorescence", "setting": "LC3A [2]; compound 488.281 nM titrated against LC3A", "value": "11460.432 and 11424.556"}, {"measurement": "Initial Fluorescence", "setting": "LC3A [2]; compound 976.562 nM titrated against LC3A", "value": "11304.154 and 11789.590"}, {"measurement": "Initial Fluorescence", "setting": "LC3A [2]; compound 1953.12 nM titrated against LC3A", "value": "11136.164 and 11540.347"}, {"measurement": "Initial Fluorescence", "setting": "LC3A [2]; compound 3906.25 nM titrated against LC3A", "value": "11540.226 and 11678.705"}, {"measurement": "Initial Fluorescence", "setting": "LC3A [2]; compound 7812.5 nM titrated against LC3A", "value": "12368.631 and 13118.831"}, {"measurement": "Initial Fluorescence", "setting": "LC3A [2]; compound 15625 nM titrated against LC3A", "value": "13549.037 and 11303.453"}, {"measurement": "Initial Fluorescence", "setting": "LC3A [2]; compound 31250 nM titrated against LC3A", "value": "12093.613 and 11816.274"}, {"measurement": "Initial Fluorescence", "setting": "LC3A [2]; compound 62500 nM titrated against LC3A", "value": "12824.797 and 12883.571"}, {"measurement": "Initial Fluorescence", "setting": "LC3A [2]; compound 125000 nM titrated against LC3A", "value": "12380.010 and 12980.949"}, {"measurement": "Initial Fluorescence", "setting": "LC3A [2]; compound 250000 nM titrated against LC3A", "value": "12405.646 and 13536.280"}]}]}
